Reference: patent publication US7943577B2, “Alpha-fetoprotein peptides and uses thereof” (Albany Medical College, priority 2001, dated 2011)

How the values were obtained:
[1] = tested on: small cell lung cancer HTB 184 cells; assay: PCNA and nuclear ERα immunoblot, HTB 184; format: cell-based, human; set-up: key to Total Nuclear Estrogen Receptor / PCNA accumulation: “+” indicates increase; “−” indicates decrease; “NC” indicates no change
Procedure: (§1) Cell lines. Glioma cells: C6 cells were cultured in F-12K medium with 18% FBS. F98 cells and GL261 cells were cultured in DMEM with 10% FBS. Head and neck cancer: 22B cells were cultured in DMEM with 10% FBS. Papillary thyroid cancers: BHP2-7 cells and BHP18-21 cells were cultured in DMEM with 10% FBS. Small cell lung cancer: HTB184 cells were cultured in RPMI medium with 10% FBS. Breast cancers: MCF-7 cells were cultured in DMEM (w/o phenol red) with 5% FBS and MDA-MB cells were cultured in DMEM with 10% FBS. Colon cancer: Colo 205 cells were cultured in RPMI medium with 10% FBS. Ovarian cancer: OVCAR-3 cells were culture in RPMI medium with 20% FBS supplemented with insulin. Prostate cancers: LNCaP cells were cultured in RPMI medium with 10% FBS. DU145 cells were cultured in MEM with 10% FBS and PC3 cells were cultured in F-12 medium with 10% FBS. Cervical cancer: HeLa cells were cultured in MEM with 10% FBS. Melanoma cells were cultured in DMEM with 10% FBS. These conditions were determined to maintain cellular production of proliferating cell nuclear antigen (PCNA) at high levels immediately prior to study of AFP-related peptide. All cell cultures were maintained in a 5% CO2/95% O2 incubator at 37 C. Cell fractionation. Fractionation in a microfuge and preparation of nucleoproteins was by our previously reported methods (1-3). Nuclear extracts were prepared by resuspension of the crude nuclei in high salt buffer (hypotonic buffer with 420 mM NaCl and 20% glycerol) at 4° C. with rocking for 1 hr. The supernatants were collected after subsequent centrifugation at 4° C. and 13,000 rpm for 10 min. Immunoblotting. The techniques are standard and have been described in a number of our publications (1-3). In brief, nucleoproteins were separated on discontinuous SDS-PAGE and then transferred by electroblotting to nitocellulose membranes (Millipore, Bedford, Mass.). […] Immunoreactive proteins are detected by chemiluminescence.

[2] = tested on: MDA-MB breast cancer cells; assay: PCNA and nuclear ERα immunoblot, MDA-MB; format: cell-based, human; set-up: key to Total Nuclear Estrogen Receptor / PCNA accumulation: “+” indicates increase; “−” indicates decrease; “NC” indicates no change
Procedure: as §1

[3] = tested on: colon cancer (Colo 205) cells; assay: PCNA and nuclear ERα immunoblot, Colo 205; format: cell-based, human; set-up: key to Total Nuclear Estrogen Receptor / PCNA accumulation: “+” indicates increase; “−” indicates decrease; “NC” indicates no change
Procedure: as §1

[4] = tested on: HeLa cervical cancer cells; assay: PCNA and nuclear ERα immunoblot, HeLa; format: cell-based; set-up: key to Total Nuclear Estrogen Receptor / PCNA accumulation: “+” indicates increase; “−” indicates decrease; “NC” indicates no change
Procedure: as §1

[5] = tested on: MAPK activation and ER phosphorylation in T47-D human breast cancer cells; assay: E2-induced MAPK activation and ER serine-118 phosphorylation in T47-D cells; format: cell-based; conditions: E2 10^−8M, 60 m
Procedure: Cells were treated with E2 for 60 m and lysed. The nuclear fraction was isolated, separated by gel electrophoresis of the nucleoproteins, and the proteins were transferred to membranes. The resolved nucleoproteins were immunoblotted with anti-phosphoMAPK (activated MAPK, pMAPK) and anti-phosphoER (pER.) The anti-pER is directed to ER's serine-118. The peptides of the invention, at, e.g., […], blocks MAPK E2 activation and E2-induced ER phosphorylation. However, there is no enhancement by E2 of either MAPK activation or ER phosphorylation when E2 is added with the peptides of the invention. It has been shown by Lobehofer et al. (Cell Growth Differ 11: 99-110 (2000)) that pharmacological inhibition of MAPK prevents E2-induced mitogenesis in human breast cancer cell line (MCF-7). Therefore, the peptides of the invention block ER phosphorylation, a step which is required for full transcriptional activity of ER, and as such, the peptides of the invention are useful anti-cancer, e.g., breast cancer, agents.
The inventors, while not wishing to be limited to a particular method or theory of how the present invention operates, have performed experiments using T-47D cells cultured with estradiol plus peptides of the invention, estradiol alone, peptide alone, or no additives (control). […] There was a corresponding reduction in the phosphorylation of serine 118 on the estrogen receptor. […]

[6] = tested on: BHP 2-7 papillary thyroid cancer cells; assay: PCNA and nuclear ERα immunoblot, BHP 2-7; format: cell-based; set-up: key to Total Nuclear Estrogen Receptor / PCNA accumulation: “+” indicates increase; “−” indicates decrease; “NC” indicates no change
Procedure: as §1

cancer cell lines = assay: PCNA and nuclear ERα immunoblot, summary over cancer cell lines; format: cell-based; conditions: E2 1×10^−9 M
Procedure: as §1

C6 glioma cells = assay: PCNA and nuclear ERα immunoblot, C6; format: cell-based, murine; set-up: key to Total Nuclear Estrogen Receptor / PCNA accumulation: “+” indicates increase; “−” indicates decrease; “NC” indicates no change
Procedure: as §1

melanoma cells = assay: PCNA and nuclear ERα immunoblot, melanoma; format: cell-based, human; set-up: key to Total Nuclear Estrogen Receptor / PCNA accumulation: “+” indicates increase; “−” indicates decrease; “NC” indicates no change
Procedure: Cell lines. Glioma cells: C6 cells were cultured in F-12K medium with 18% FBS. F98 cells and GL261 cells were cultured in DMEM with 10% FBS. Head and neck cancer: 22B cells were cultured in DMEM with 10% FBS. Papillary thyroid cancers: BHP2-7 cells and BHP18-21 cells were cultured in DMEM with 10% FBS. Small cell lung cancer: HTB184 cells were cultured in RPMI medium with 10% FBS. Breast cancers: MCF-7 cells were cultured in DMEM (w/o phenol red) with 5% FBS and MDA-MB cells were cultured in DMEM with 10% FBS. Colon cancer: Colo 205 cells were cultured in RPMI medium with 10% FBS. Ovarian cancer: OVCAR-3 cells were culture in RPMI medium with 20% FBS supplemented with insulin. Prostate cancers: LNCaP cells were cultured in RPMI medium with 10% FBS. DU145 cells were cultured in MEM with 10% FBS and PC3 cells were cultured in F-12 medium with 10% FBS. Cervical cancer: HeLa cells were cultured in MEM with 10% FBS. Melanoma cells were cultured in DMEM with 10% FBS. These conditions were determined to maintain cellular production of proliferating cell nuclear antigen (PCNA) at high levels immediately prior to study of AFP-related peptide. All cell cultures were maintained in a 5% CO2/95% O2 incubator at 37 C. Cell fractionation. Fractionation in a microfuge and preparation of nucleoproteins was by our previously reported methods (1-3). Nuclear extracts were prepared by resuspension of the crude nuclei in high salt buffer (hypotonic buffer with 420 mM NaCl and 20% glycerol) at 4° C. with rocking for 1 hr. The supernatants were collected after subsequent centrifugation at 4° C. and 13,000 rpm for 10 min. Immunoblotting. The techniques are standard and have been described in a number of our publications (1-3). In brief, nucleoproteins were separated on discontinuous SDS-PAGE and then transferred by electroblotting to nitocellulose membranes (Millipore, Bedford, Mass.). After blocking with 5% milk in Tris-buffered saline containing 0.1% Tween, the membranes were incubated with either mouse anti-human PCNA (Santa Cruz Biotech., Santa Cruz, Calif.) or mouse anti-human ER antibody (Santa Cruz) overnight. Secondary antibody was rabbit anti-mouse IgG (1:1000)(Dako), depending upon the origin of the primary antibody. Immunoreactive proteins are detected by chemiluminescence.

[7] = tested on: DU145 prostate carcinoma cells; assay: PCNA and nuclear ERα immunoblot, DU145; format: cell-based, human; set-up: key to Total Nuclear Estrogen Receptor / PCNA accumulation: “+” indicates increase; “−” indicates decrease; “NC” indicates no change
Procedure: as §1

[8] = HTB 184 (Small Cell Lung Cancer)
[9] = BHP 2-7 (Papillary Thyroid Cancer)

C[C@]12CC[C@@H]3c4ccc(O)cc4CC[C@H]3[C@@H]1CC[C@@H]2O [E2, 17β-estradiol]
PCNA accumulation [1, 8]: +
Total Nuclear Estrogen Receptor [1, 8]: +
nuclear ERα ([1]; HTB 184, 10^−9M E2 or 10^−6 M AFP-peptide, 24 h): increased nuclear ERα accumulation
PCNA accumulation ([2]; MDA-MB (Breast Cancer)): NC
Total Nuclear Estrogen Receptor ([2]; MDA-MB (Breast Cancer)): NC
nuclear ER ([2]; MDA-MB, 10^−9 M E2 or 10^−6 M peptide, 24 h): no significant change in ER
PCNA accumulation ([3]; Colo205 (Colon Cancer)): NC
Total Nuclear Estrogen Receptor ([3]; Colo205 (Colon Cancer)): NC
nuclear ERα ([3]; Colo 205, 10^−9 M E2 or 10^−7 M AFP-peptide, 24 h): did not increase nuclear accumulation of ER
PCNA accumulation ([4]; HeLa (Cervical Cancer)): +
Total Nuclear Estrogen Receptor ([4]; HeLa (Cervical Cancer)): +
nuclear ERα ([4]; HeLa, 10^−9M E2 or 10^−7 M AFP-peptide, 24 h): Neither E2 or AFP-peptide decreased nuclear accumulation of ERα
MAPK activation (pMAPK) and ER serine phosphorylation (pER), nuclear fraction immunoblot [5]: activates MAPK, e.g., in T47-D human breast cancer cells and serine-phosphorylates ER
PCNA accumulation [6, 9]: +
Total Nuclear Estrogen Receptor [6, 9]: +
nuclear ERα ([6]; BHP 2-7, 10^−9 M E2 or 10^−7 M AFP-peptide, 24 h): increased nuclear accumulation of ERα
total nuclear accumulation of ERα (cancer cell lines; 24 hr, C6, F98, GL261, 22B, BHP 2-7, BHP 18-21, HTB 184, MCF-7 and HeLa cells): increased total nuclear accumulation of estrogen receptor-α (ERα)
total nuclear ERα (cancer cell lines; MDA-MB, Colo205, OVCAR-3, LNCaP, and PC3 cells): no significant change in total nuclear ERα
total nuclear ERα (cancer cell lines; melanoma cells): decreased the total nuclear ERα
PCNA accumulation (C6 glioma cells; C6 (Glioma)): +
Total Nuclear Estrogen Receptor (C6 glioma cells; C6 (Glioma)): +
nuclear ERα (C6 glioma cells; C6, 10^−9 M E2 or 10^−6 M AFP-peptide, 24 h): increased nuclear accumulation of ERα
PCNA accumulation (melanoma cells; Melanoma (Skin Cancer)): −
Total Nuclear Estrogen Receptor (melanoma cells; Melanoma (Skin Cancer)): −
nuclear ERα (melanoma cells; melanoma, 10^−9 M E2 or 10^−6M AFP-peptide, 24 h): decrease nuclear ERα accumulation
PCNA accumulation (melanoma cells; melanoma, AFP-peptide 10^−9 to 10^−7 M (left panel), 10^−9 M E2 or 10^−6M AFP-peptide (right panel), 24 h): reduce PCNA
PCNA accumulation ([7]; DU 145 (Prostate Cancer)): −
Total Nuclear Estrogen Receptor ([7]; DU 145 (Prostate Cancer)): −
nuclear ERα ([7]; DU145, 10^−9 M E2 or 10^−6 M AFP-peptide, 24 h): did not increase nuclear accumulation of ERα
